Measured values from US6858414B2, “Multistage process for the preparation of highly pure deferoxamine mesylate salt” (Biogal Gyógyszergyár Rt., priority 1999, dated 2005).

Assays:
[1] = association constant; cited from earlier work
[2] = stability as solid and in concentrated solution; assay type: physicochemical
[3] = cited from earlier work
[4] = association constant; cited from earlier work; remark: listed apart in the source
[5] = tested on: secondary iron overload from multiple transfusions; conditions: cited from earlier work

Q: What does the source list for `CC(=O)N(O)CCCCCNC(=O)CCC(=O)N(O)CCCCCNC(=O)CCC(=O)N(O)CCCCCN` [Deferoxamine B, N′-[5-[[4-[[5-(acetylhydroxyamino)pentyl]amino]-1,4-dioxobutyl]hydroxyamino]pentyl]-N-(5-aminopentyl)-N-hydroxy-butanediamide]?
A: affinity for ferric iron (Ka) [1]: 10^31; stability in solution ([2]; concentrated solution, on evaporation): prone to decomposition in concentrated solution; stability as solid ([2]; solid): reasonably stable solid; oral absorption [3]: not well-absorbed orally; affinity for calcium (Ka) [4]: 10^2; accumulation of hepatic iron ([5]; long term therapy): slows accumulation of hepatic iron; progression of hepatic fibrosis ([5]; long term therapy): retards or eliminates progression of hepatic fibrosis; iron excretion ([5]; patients with secondary iron overload from multiple transfusions): promotes iron excretion
